Measurements published in US6355799B1, “Substituted benzene compounds, process for their preparation, and herbicidal and defoliant compositions containing them” (ISK Americas Incorporated, priority 1997, dated 2002).

What was measured:
Assay type in all cases: in vivo
[1] = system: barnyardgrass (Echinochloa crus-galli, ECHCG); experiment: Pre-emerge test, greenhouse herbicide activity screening; settings: Echinochloa crus-galli, pre-emergence, 336 h, pre-emerge, phytotoxicity rating 0-100 at 14 days after application, read-out: Pre-emerge Herbicidal Activity ECHCG; for pest or weed control at 63 g/ha: rate 63 g ai/ha; for pest or weed control at 250 g/ha: rate 250 g ai/ha
How it was run: (§1)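 Rating: 0–100 visual injury, 14 DAA. Application: acetone, 187 l/ha, 15–1000 g ai/ha, flat-fan track sprayer with nozzle 40–45 cm above soil or canopy. Post-emerge runs used 0.25% v/v surfactant on 2–3 leaf plants.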

[2] = system: green foxtail (Setaria viridis, SETVI); experiment: as above; settings: Setaria viridis, pre-emergence, 336 h, pre-emerge, phytotoxicity rating 0-100 at 14 days after application, read-out: Pre-emerge Herbicidal Activity SETVI; for pest or weed control at 63 g/ha: rate 63 g ai/ha; for pest or weed control at 250 g/ha: rate 250 g ai/ha
How it was run: as §1

[3] = system: ivyleaf morningglory (Ipomoea hederacea, IPOHE); experiment: as above; settings: Ipomoea, pre-emergence, 336 h, pre-emerge, phytotoxicity rating 0-100 at 14 days after application, read-out: Pre-emerge Herbicidal Activity IPOHE; for pest or weed control at 63 g/ha: rate 63 g ai/ha; for pest or weed control at 250 g/ha: rate 250 g ai/ha
How it was run: as §1

[4] = system: lambsquarters (Chenopodium album, CHEAL); experiment: as above; settings: Chenopodium album, pre-emergence, 336 h, pre-emerge, phytotoxicity rating 0-100 at 14 days after application, read-out: Pre-emerge Herbicidal Activity CHEAL; for pest or weed control at 63 g/ha: rate 63 g ai/ha; for pest or weed control at 250 g/ha: rate 250 g ai/ha
How it was run: as §1

[5] = system: large crabgrass (Digitaria sanguinalis, DIGSA); experiment: as above; settings: Digitaria sanguinalis, pre-emergence, 336 h, pre-emerge, phytotoxicity rating 0-100 at 14 days after application, read-out: Pre-emerge Herbicidal Activity DIGSA; for pest or weed control at 63 g/ha: rate 63 g ai/ha; for pest or weed control at 250 g/ha: rate 250 g ai/ha
How it was run: as §1

[6] = system: sicklepod (Cassia obtusifolia, CASOB); experiment: as above; settings: Senna obtusifolia, pre-emergence, 336 h, pre-emerge, phytotoxicity rating 0-100 at 14 days after application, read-out: Pre-emerge Herbicidal Activity CASOB; for pest or weed control at 63 g/ha: rate 63 g ai/ha; for pest or weed control at 250 g/ha: rate 250 g ai/ha
How it was run: as §1

[7] = system: velvetleaf (Abutilon theophrasti, ABUTH); experiment: as above; settings: Abutilon theophrasti, pre-emergence, 336 h, pre-emerge, phytotoxicity rating 0-100 at 14 days after application, read-out: Pre-emerge Herbicidal Activity ABUTH; for pest or weed control at 63 g/ha: rate 63 g ai/ha; for pest or weed control at 250 g/ha: rate 250 g ai/ha
How it was run: as §1

[8] = system: green foxtail (Setaria viridis, SETVI); experiment: Post-emerge test, greenhouse herbicide activity screening; settings: Setaria viridis, post-emergence, 336 h, post-emerge, phytotoxicity rating 0-100 at 14 days after application, read-out: Post-emerge Herbicidal Activity SETVI; for pest or weed control at 250 g/ha: 250 g ai/ha
How it was run: (§2)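 Plants grown in 10 cm pots of sandy loam mix received acetone-dissolved compounds through a moving flat-fan nozzle. Doses ranged from 15 to 1000 g ai/ha. Pre-emerge pots were seeded one day earlier, post-emerge pots 8–21 days earlier. Fourteen days on, each pot was graded 0–100 for damage.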

[9] = system: lambsquarters (Chenopodium album, CHEAL); experiment: as above; settings: Chenopodium album, post-emergence, 336 h, post-emerge, phytotoxicity rating 0-100 at 14 days after application, read-out: Post-emerge Herbicidal Activity CHEAL; for pest or weed control at 250 g/ha: 250 g ai/ha
How it was run: as §2

[10] = system: large crabgrass (Digitaria sanguinalis, DIGSA); experiment: as above; settings: Digitaria sanguinalis, post-emergence, 336 h, post-emerge, phytotoxicity rating 0-100 at 14 days after application, read-out: Post-emerge Herbicidal Activity DIGSA; for pest or weed control at 250 g/ha: 250 g ai/ha
How it was run: as §2

[11] = system: redroot pigweed (Amaranthus retroflexus, AMARE); experiment: as above; settings: Amaranthus retroflexus, post-emergence, 336 h, post-emerge, phytotoxicity rating 0-100 at 14 days after application, read-out: Post-emerge Herbicidal Activity AMARE; for pest or weed control at 250 g/ha: 250 g ai/ha
How it was run: as §2

[12] = system: sicklepod (Cassia obtusifolia, CASOB); experiment: as above; settings: Senna obtusifolia, post-emergence, 336 h, post-emerge, phytotoxicity rating 0-100 at 14 days after application, read-out: Post-emerge Herbicidal Activity CASOB; for pest or weed control at 250 g/ha: 250 g ai/ha
How it was run: as §2

[13] = system: velvetleaf (Abutilon theophrasti, ABUTH); experiment: as above; settings: Abutilon theophrasti, post-emergence, 336 h, post-emerge, phytotoxicity rating 0-100 at 14 days after application, read-out: Post-emerge Herbicidal Activity ABUTH; for pest or weed control at 250 g/ha: 250 g ai/ha
How it was run: as §2

SMILES	pest or weed control at 63 g/ha [1]	pest or weed control at 250 g/ha [1]	pest or weed control at 63 g/ha [2]	pest or weed control at 250 g/ha [2]	pest or weed control at 63 g/ha [3]	pest or weed control at 250 g/ha [3]	pest or weed control at 63 g/ha [4]	pest or weed control at 250 g/ha [4]	pest or weed control at 63 g/ha [5]	pest or weed control at 250 g/ha [5]	pest or weed control at 63 g/ha [6]	pest or weed control at 250 g/ha [6]	pest or weed control at 63 g/ha [7]	pest or weed control at 250 g/ha [7]	pest or weed control at 250 g/ha [8]	pest or weed control at 250 g/ha [9]	pest or weed control at 250 g/ha [10]	pest or weed control at 250 g/ha [11]	pest or weed control at 250 g/ha [12]	pest or weed control at 250 g/ha [13]	also measured
COc1c(Cl)cc(F)c(-c2nn(C)c(C(F)(F)F)c2Cl)c1NC(=O)c1ccc2ccccc2c1 [Compound 7-14]	0%	40%	0%	70%	30%	20%	70%	100%	60%	70%	10%	50%	40%	60%	20%	90%	10%	70%	60%	95%	
COc1c(Cl)cc(Cl)c(-n2nc(C)n(C(F)F)c2=O)c1NC(=O)c1ccc2ccccc2c1 [Compound 6-17]	10%	90%	70%	99%	0%	30%	100%	100%	30%	99%	0%	20%	30%	95%	30%	90%	20%	70%	70%	100%	pest or weed control at 63 g/ha ([8]; 63 g ai/ha): 0%; pest or weed control at 63 g/ha ([9]; 63 g ai/ha): 90%; pest or weed control at 63 g/ha ([10]; 63 g ai/ha): 0%; pest or weed control at 63 g/ha ([11]; 63 g ai/ha): 60%; pest or weed control at 63 g/ha ([12]; 63 g ai/ha): 50%; pest or weed control at 63 g/ha ([13]; 63 g ai/ha): 90%
